Reference: US20240299484A1, “DILEUCINE COMPOSITIONS AND METHODS OF USE THEREOF” (Ingenious Ingredients, LP, priority 2023, published 2024)
Marks after values point to notes of the source that are not given here.

How the values were obtained:
Format in all cases: in vivo, Swiss Albino mice
total cholesterol (TC) = test: Blood lipids: total cholesterol; details: for TC / TC [mg/dl]: after 28 days of supplementation, mice, n = 8; for TC Change over control [%]: vs Exercise Control, 28 days
Protocol: (§1) Eight 8-week-old male Swiss Albino mice per experimental group were housed in an animal room at a constant temperature (22±3° C.) and humidity (30%-70%) under a 12:12 h light-dark cycle with standard laboratory diet (Purina 5L79, Rat and Mouse 18% protein; PMI Nutrition International, Brentwood, MO, USA). Distilled water was provided ad libitum. All animal experiments were reviewed and approved by the Institutional Animal Ethical Committee (IAEC) of Radiant Research Services Pvt. Ltd (Bangalore, India). All research was conducted in accordance with the guidelines of the committee for the purpose of control and supervision of experiments on animals (CPCSEA Registration Number-1803/PO/RcBi/S/2015/CPCSEA).
(§2) After one week of acclimation, the animals were randomly divided by body weight into different groups (n=8 per group in each test) for oral treatment once a day, at approximately same time each day (+1 hour), for 28 consecutive days: (1) vehicle control; (2) paraxanthine (3) dileucine; (4) paraxanthine+dileucine; (5) L-arginine; (6) L-arginine+dileucine; (7) L-citrulline; and (8) L-citrulline+dileucine. The dose administered to the mice was calculated using US Food and Drug Administration for human equivalence doses (HED), assuming a human weight of 60 kg. The following HED were used in this study: 2,000 mg dileucine (RAMPS™, Ingenious Ingredients, L.P., Lewisville, TX, USA; mouse 411 mg/kg bw), 100 mg paraxanthine, (ENFINITY™, Ingenious Ingredients, L.P Lewisville, TX, USA; mouse dose: 20.5 mg/kg bw/day); 3,000 mg L-arginine (Nanjing Nutrabuilding Bio-tech Co., LTD., No. 270 Jiqingmen Strect, Suning Huigu, Building E6, Room 2105, Nanjing, China 210017; mouse 616.55 mg/kg bw), 3,000 mg L-citrulline (Nanjing Nutrabuilding Bio-tech Co., LTD., No. 270 Jiqingmen Street, Suning Huigu, Building E6, Room 2105, Nanjing, China 210017; mouse 616.55 mg/kg bw). 0.5% Carboxy Methyl Cellulose sodium was used as vehicle and the test item formulations were prepared daily. Dosing was conducted via oral gavage using disposable polypropylene syringes with sterilized stainless steel gavage tubes. The food intake and water consumption were monitored daily, and BW was recorded weekly. The last dose on day 28 was given 1 hour prior to testing.
(§3) All animals were euthanized by 95% CO2 after 28 days of following their assigned treatment. Blood was collected immediately after euthanization by the retro-orbital route and was immediately centrifuged at 1500×g for 10 min at 4° C. before having all serum transferred into cryogenic tubes and stored at −80° C.
(§4) Serum and plasma samples were separated by centrifuging the blood at 8000 rpm for 10 mins and analyze the below mentioned biomarkers, Biomarkers: TC, TG, LDL and HDL, CRP, Serum lactate, Ammonia, Glucose, NO, IL-2, IL-6, IL-10. Blood was collected in EDTA tubes for below mentioned biomarkers, Immune health Biomarkers (T helper subsets): TH1, TH2, TH17, Tfh, iTreg.

C-reactive protein (CRP) = test: Inflammatory markers: CRP; details: for CRP (mg/L): after 28 days of supplementation and exercise, mice, n = 8; for CRP Change over control [%]: vs Exercise Control, 28 days
Protocol: as §1, §2, §3, §4

TH17 = test: Immune health biomarkers (T helper subsets): TH17; details: for TH17(%): T helper subset in blood after 28 days, mice, n = 8; for TH17 Change over control [%]: vs Exercise Control, 28 days
Protocol: (§5) PMI Nutrition International, Brentwood, MO, USA). Distilled water was provided ad libitum. All animal experiments were reviewed and approved by the Institutional Animal Ethical Committee (IAEC) of Radiant Research Services Pvt. Ltd (Bangalore, India). All research was conducted in accordance with the guidelines of the committee for the purpose of control and supervision of experiments on animals (CPCSEA Registration Number-1803/PO/[…]). […] (1) vehicle control; […] (4) paraxanthine+dileucine; […] The dose administered to the mice was calculated using US Food and Drug Administration for human equivalence doses (HED), assuming a human weight of 60 kg. […] Dosing was conducted via oral gavage using disposable polypropylene syringes with sterilized stainless steel gavage tubes. The food intake and water consumption were monitored daily, and BW was recorded weekly. The last dose on day 28 was given 1 hour prior to testing. Serum and plasma samples were separated by centrifuging the blood at 8000 rpm for 10 mins and analyze the below mentioned biomarkers, Biomarkers: TC, TG, LDL and HDL, CRP, Serum lactate, Ammonia, Glucose, NO, IL-2, IL-6, IL-10. Blood was collected in EDTA tubes for below mentioned biomarkers, Immune health Biomarkers (T helper subsets): […]

Tfh = test: Immune health biomarkers (T helper subsets): Tfh; details: for Tfh(%) (mg/L): T helper subset in blood after 28 days, mice, n = 8; for Tfh Change over control [%]: vs Exercise Control, 28 days
Protocol: as §1, §2, §4

TH2 = test: Immune health biomarkers (T helper subsets): TH2; details: for TH2(%): T helper subset in blood after 28 days, mice, n = 8; for TH2 Change over control [%]: vs Exercise Control, 28 days
Protocol: as §5

nitric oxide = test: NO signaling: nitric oxide level; details: for Nitric oxide (μmol/L) (mg/L): after 28 days of supplementation and exercise, mice, n = 8; for Nitric oxide Change over control [%]: vs Exercise Control, 28 days
Protocol: as §1, §2, §3, §4

IL-6 = test: Inflammatory markers: IL-6; details: for IL-6 Change over control [%]: vs Exercise Control, 28 days
Protocol: as §1, §2, §3, §4

low-density lipids (LDL) = test: Blood lipids: LDL; details: for LDL: after 28 days of supplementation, mice, n = 8; for LDL Change over control [%]: vs Exercise Control, 28 days
Protocol: as §1, §2, §3, §4

triglycerides (TG) = test: Blood lipids: triglycerides; details: for TG: after 28 days of supplementation, mice, n = 8; for TG Change over control [%]: vs Exercise Control, 28 days
Protocol: as §1, §2, §3, §4

[1] = after 28 days of supplementation and exercise, mice, n = 8

SMILES	TC (total cholesterol (TC)) [mg/dL]	TC Change over control [%] (total cholesterol (TC))	CRP (mg/L) (C-reactive protein (CRP))	CRP Change over control [%] (C-reactive protein (CRP))	TH17(%) (TH17)	TH17 Change over control [%] (TH17)	Tfh(%) (mg/L) (Tfh)	Tfh Change over control [%] (Tfh)	TH2(%) (TH2)	TH2 Change over control [%] (TH2)	Nitric oxide (μmol/L) (mg/L) (nitric oxide)	Nitric oxide Change over control [%] (nitric oxide)	IL-6 (pg/ml) (IL-6; [1])	IL-6 Change over control [%] (IL-6)	LDL (low-density lipids (LDL)) [mg/dL]	LDL Change over control [%] (low-density lipids (LDL))	TG (triglycerides (TG)) [mg/dL]	TG Change over control [%] (triglycerides (TG))	TC [mg/dl] (total cholesterol (TC))	IL-6 (IL-6; [1]) [pg/mL]
CC(C)C[C@H](NC(=O)[C@@H](N)CC(C)C)C(=O)O [Dileucine, L-Leucyl-L-leucine]	93.3	−6	0.63*** mg/L	−18	29.62*** %	712	55.72%	613	53.68*** %	368	84.83*** μmol/L	34	343** pg/ml	−7	42.05	−3	92.66	−3	–	–
N=C(N)NCCC[C@H](N)C(=O)O [L-Arginine, L-arginine]	95.43	−5	0.69*** mg/L	−16	26.16*** %	617	44.16*** %	465	40.44*** %	252	77.98* μmol/L	29	351.39** pg/ml	−7	44.66	3	94.1	−2	–	–
NC(=O)NCCC[C@H](N)C(=O)O [L-Citrulline, L-citrulline]	–	−6	0.69*** mg/L	−16	25.89*** %	609	40.87*** %	423	38.23*** %	234	77.61 µmol/L	28	–	−7	44.01	1	94.58	−2	94.26* mg/dl	349.52
Cn1c(=O)[nH]c2ncn(C)c2c1=O [Paraxanthine, 1,7-dimethylxanthine]	–	−8	0.64** mg/L	−17	31.33*** %	758	54.96*** %	603	53.63*** %	368	84.29*** μmol/L	33	340.6** pg/ml	−8	43.23	−1	91.94	−4	91.66** mg/dl	–
